Results reported in patent publication US11768205B2, “Methods and materials for identifying and treating cancers having elevated levels of phosphorylated ubiquitin” (Mayo Foundation for Medical Education and Research, priority 2017, dated 2023).

Legend:
NIH-3T3 cells = test: Western blot of Ub conjugates after FGFb; assay type: cell-based, mouse
Protocol: FIG. 6. FGFR activation increases cellular Ub conjugates. (A to D). NIH-3T3 cells were serum starved for 48 hours and then treated with 20 ng/mL FGFb and harvested at different time course. Total Ub conjugates (A), K48-linked conjugates (B), and K63-linked conjugates (C) were determined by Western blot, and their intensities were quantitated and normalized to that of β-actin and then to time 0 in each group (D). Data were mean±SD of three independent experiments. (**: p<0.01, Student's t-test). (E to H). HEK293 cells were transfected with empty vector (Ctrl), FGFR2 wide type, or FGFR2 kinase dead mutant (KR). Total Ub conjugates (E), K48-linked conjugates (F), and K63-linked conjugates (G) were determined by Western blot, and their intensities were quantitated and normalized to that of β-actin and then to control in each group (H). Data were mean±SD of three independent experiments. (**: p<0.01, Student's t-test). (I to L). NIH-3T3 cells were serum starved for 48 hours and then treated with vehicle, FGFb, or FGFb and FGF inhibitor TKI-258. Total Ub conjugates (I), K48-linked conjugates (J), and K63-linked conjugates (K) were determined by Western blot, and their intensities were quantitated and normalized to that of β-actin and then to control in each group (L). Data were mean±SD of three independent experiments. (**: p<0.01, Student's t-test).
Cell lysates were prepared, and immunoprecipitation and immunoblotting were performed as described elsewhere (Deng et al., Mol. Cell, 61:614-624 (2016)). In brief, cells were lysed with NETN buffer (20 mM Tris-HCl, pH 8.0, 100 mM NaCl, 1 mM EDTA, 0.5% Nonidet P-40) containing 50 mM β-glycerophosphate, 10 mM NaF, and 1 mg/mL each of pepstatin A and aprotinin. Whole cell lysates were centrifuged at 12000 rpm for 15 minutes. Whole cell lysates were incubated with 2 of antibody and protein A or protein G Sepharose beads (Amersham Biosciences) for 2 hours or overnight at 4° C. The immunocomplexes were then washed with NETN buffer for three times and separated by SDS-PAGE. Immunoblotting was performed following standard procedures. […]

MDA-MB-468 cells [1] = test: Western blot of total, K48-linked and K63-linked Ub conjugates after EGF; assay type: cell-based, human
Protocol: FIG. 3. EGFR enhances proteasomal degradation and promotes K48-linked ubiquitin conjugates. (A). MDA-MB-468 cells were serum starved for 24 hours and labeled with ^35S-Met for 24 hours. […] The rate of protein degradation was shown as the fraction of radiolabelled protein remaining over time. Data were mean±SD of three independent experiments. (**: p<0.01, two-way ANOVA test). (B and C). MDA-MB-468 cells were treated as in (A), except that 20 nM bortezomib (B) or 10 μM chloroquine (C) was present in the chase media. Data were mean±SD of three independent experiments. (**: p<0.01, two-way ANOVA test). (D). […] Total Ub conjugates, K48-linked conjugates, and K63-linked conjugates were determined by Western blot, and their intensities were quantitated and normalized to that of β-actin and then to time 0 in each group. Data were mean±SD of three independent experiments. (**: p<0.01, Student's t-test). (E). […] Total Ub conjugates, K48-linked conjugates, and K63-linked conjugates were determined by Western blot, and their intensities were quantitated and normalized to that of β-actin and then to control in each group. Data were mean±SD of three independent experiments. […] Total Ub conjugates, K48-linked conjugates, and K63-linked conjugates were determined by Western blot, and their intensities were quantitated and normalized to that of β-actin and then to time 0 in each group. […]

[2] = test system: NIH-3T3 cells transformed by EGFR L858R; test: Cell proliferation and MTS assay; assay type: cell-based, mouse; conditions: EGFR L858R transformed cells compared to Ctrl cells; FIG. 14G
Protocol: FIG. 14. […] (A-D). NIH-3T3 cells were infected with virus expressing EGFR DM mutant. Cells were harvested at different times after infection. Total Ub conjugates (A), K48-linked conjugates (B), and K63-linked conjugates (C) were determined by Western blot, and their intensities were quantitated and normalized to that of β-actin. Data were mean±SD of three independent experiments. (**: p<0.01, Student's t-test). (E) NIH-3T3 cells were infected with virus expressing EGFR DM mutant. Cells were harvested at different times after infection. Cell lysates were blotted with an anti-pY59 antibody. (F). NIH-3T3 stably expressing empty vector (Ctrl) or EGFR L858R mutant were serum starved for 48 hours and were labeled with ^35S Met for 24 hours in the absence of serum. […] At different time points, cells were harvested, and radiolabeled protein remaining in the cell was measured. The rate of protein degradation was shown as the fraction of radiolabeled protein remaining over time. […]
90 μL of cells (5×10^5 cells/mL) were plated into each well of 96-well plates (Corning, Lowell, Mass.; MacLean et al., Bioinformatics, 26:966-968 (2010)) and were treated with 10 μL of bortezomib at the final concentrations of 0, 0.0457, 0.1372, 0.4115, 1.2346, 3.7037, 11.1111, 33.3333 and 100 nM. […] Plates were then read in a microplate reader at absorbance of OD 490 (Tecan AG, Switzerland).

MDA-MB-468 cells [3] = test: Pulse-chase measurement of protein degradation (35S-Met); assay type: cell-based, human
Protocol: FIG. 3. EGFR enhances proteasomal degradation and promotes K48-linked ubiquitin conjugates. (A). MDA-MB-468 cells were serum starved for 24 hours and labeled with ^35S-Met for 24 hours. […] The rate of protein degradation was shown as the fraction of radiolabelled protein remaining over time. Data were mean±SD of three independent experiments. (**: p<0.01, two-way ANOVA test). (B and C). MDA-MB-468 cells were treated as in (A), except that 20 nM bortezomib (B) or 10 μM chloroquine (C) was present in the chase media. Data were mean±SD of three independent experiments. (**: p<0.01, two-way ANOVA test). (D). […] Total Ub conjugates, K48-linked conjugates, and K63-linked conjugates were determined by Western blot, and their intensities were quantitated and normalized to that of β-actin and then to time 0 in each group. Data were mean±SD of three independent experiments. (**: p<0.01, Student's t-test). (E). […] Total Ub conjugates, K48-linked conjugates, and K63-linked conjugates were determined by Western blot, and their intensities were quantitated and normalized to that of β-actin and then to control in each group. Data were mean±SD of three independent experiments. (**: p<0.01, Student's t-test). (F). HEK293 cells were transfected with empty vector (Ctrl) or constitutively-active EGFR (encoding the T790M/L858R mutation) and treated with AG-1478. Total Ub conjugates, K48-linked conjugates, and K63-linked conjugates were determined by Western blot, and their intensities were quantitated and normalized to that of β-actin and then to time 0 in each group. Data were mean±SD of three independent experiments. (**: p<0.01, Student's t-test).
FIG. 4. EGF treatment raises the cellular content of Ub conjugates independent of EGFR ubiquitination and new protein synthesis. (A-D). […] Total Ub conjugates (A), K48-linked conjugates (B), and K63-linked conjugates were determined by Western Blot, and their intensities were quantitated and normalized to that of β-actin and then to control at time 0 in each group (D). Data were mean±SD of three independent experiments. (**: p<0.01, Student's t-test). (E). […] At different time points, cells were harvested, and radiolabeled protein remaining in the cell was measured. […] Cells were treated as illustrated in (A), and the radioactivity of remaining in cells was measured. […] The levels of Ub conjugates and β-actin were determined by Western blot (C) and quantitated (D). […]
To assess protein degradation, cells were starved for 30 minutes with methionine-free DMEM and pulse labelled for 16-24 hours with 0.5 mL of medium containing 0.1 mCi of ^35S-Met. […] After washing in cold PBS, cells were treated in chase medium for various times, and the remaining radioactivity in cells was measured as described elsewhere (Taelman et al., Cell, 143:1136-1148 (2010)). […]

MDA-MB-468 cells [4] = test: Immunoblot of Ub Y59 phosphorylation with anti-pY59 antibody; assay type: cell-based, human; conditions: 20 ng EGF, time dependent; FIG. 7D
Protocol: FIG. 7. EGFR phosphorylates ubiquitin. (A). An in vitro kinase assay was performed at 30° C. for 1 hour in the presence of EGFR and different tetra-Ub chain or free Ub. The gels were subjected to western blot with anti-phosphor-tyrosine antibody (upper panel) or Coomassie brilliant blue (CBB) staining (lower panel). (B). Lysates from EGF treated cells was trypsinized and subjected to liquid chromatography tandem mass spectrometry (LC-MS/MS) analysis. (C). […] Absolute quantification of […] and TLSD(pY)[…] from control of EGF treated cells were quantified by Parallel Reaction Monitoring. Data were mean±SD of three independent experiments. (**: p<0.01, Student's t-test). […] Cell lysates were blotted with the anti-pY59 antibody. (E). […] Cell lysates were blotted with antibodies against pY59 and β-actin. (F). WT Ub- and Ub Y59F-replacement cells were serum starved and induced with DOX for 72 hours to replace endogenous Ub with WT Ub or Ub Y59F. […] Cell lysates were blotted with antibodies against pY59 and β-actin.
Cell lysates were prepared, and immunoprecipitation and immunoblotting were performed as described elsewhere (Deng et al., Mol. Cell, 61:614-624 (2016)). In brief, cells were lysed with NETN buffer (20 mM Tris-HCl, pH 8.0, 100 mM NaCl, 1 mM EDTA, 0.5% Nonidet P-40) containing 50 mM β-glycerophosphate, 10 mM NaF, and 1 mg/mL each of pepstatin A and aprotinin. […]

CC(O)C(=O)O.CN1CCN(c2ccc3nc(-c4c(N)c5c(F)cccc5[nH]c4=O)[nH]c3c2)CC1 [TKI-258, Dovitinib (TKI 258)]
effect on increase in Ub conjugates induced by FGFb (NIH-3T3 cells; FGFb and TKI-258, FIGS. 6I-L): blocked

N#CC(=C(/N)Sc1ccccc1N)/C(C#N)=C(\N)Sc1ccccc1N [U0126]
effect on stimulation of Ub chain assembly by EGF (MDA-MB-468 cells [1]; pretreated 12 hours before EGF treatment, FIGS. 5B-E): did not affect

CC(C)C[C@H](NC(=O)[C@H](Cc1ccccc1)NC(=O)c1cnccn1)B(O)O [bortezomib]
bortezomib sensitivity [2]: much higher

C[C@@H]1C[C@@H]([C@H](O)CC2CC(=O)NC(=O)C2)C(=O)[C@@H](C)C1 [cycloheximide]
proteasomal proteolysis (MDA-MB-468 cells [3]; 100 μg/mL cycloheximide by itself, chloroquine in chase, FIG. 4G): reduced

EGF: growth factor used to activate EGFR (NSDSECPLSHDGYCLHDGVCMYIEALDKYACNCVVGYIGERCQYRDLKWWELR; Epidermal growth factor; UniProt P01133 971-1023, looked up)
rate of protein degradation (MDA-MB-468 cells [3]; EGF in chase medium, FIG. 3A): decrease | lysosome-dependent degradation (MDA-MB-468 cells [3]; EGF, in the presence of 20 nM bortezomib, FIG. 3B): inhibited | proteasome-mediated proteolysis (MDA-MB-468 cells [3]; EGF, in the presence of 10 μM chloroquine, FIG. 3C): increased dramatically | phosphorylation of Ub (MDA-MB-468 cells [4]): dramatic increase | cellular ubiquitin conjugates (MDA-MB-468 cells [1]; 20 ng EGF, time dependent, FIG. 3D): significantly higher

FGFb: FGF basic, growth factor used to activate FGFR
increase in total content of ubiquitinated proteins and K48-linked Ub conjugates (NIH-3T3 cells; 20 ng/mL FGFb for 20 minutes, FIGS. 6A-D): 50% | treatment time to maximal increase in Ub conjugates (NIH-3T3 cells; 20 ng/mL FGFb, FIGS. 6A-D): 40 min
